Data: paper PMC4026528 (PLoS ONE, 2014)

Test system: U2OS cells
Test: Scratch assay (motility), U2OS
Type: cell-based, human
Settings: 20 hours
Experimental: Soft agar assay and analysis was carried out as previously described. For scratch assay, confluent monolayer of U2OS and HT-1080 cells were subjected to scratch using a sterile pipette tip. Wounded monolayers were washed to remove debris and incubated with SEN461 at different concentrations for 20 hours. After the incubation period, images were taken under an Axiovert 200M (Zeiss) microscope equipped with a CCD camera, and the gap width was measured using MetaMorph 6.3 software (Universal Imaging Corp.) to calculate the area covered by cells (pixels unit). The tube formation assay was performed using growth factor-reduced Matrigel from BD (BD Biosciences; San Jose, CA, USA). Matrigel was thawed overnight at 4°C and was diluted (1∶1) with phenol red-free DMEM without serum. 100 µl of the diluted matrigel was used to coat the wells of a 96 well plate and was allowed to polymerize for 2 hours at 37°C. After equilibrating the gel with the complete growth medium, 15×10^3 cells were seeded in each well and incubated for 20 hours. The tube formation was monitored under a phase contrast microscope (Axiovert 200, Zeiss) and imaged using MetaMorph system (Universal Imaging Corp).

COCC(=O)N1CCN(C(=O)C2CCC(Cn3c(=O)c4cc(OC)ccc4n(C)c3=O)CC2)CC1 (stereo not shown) [SEN461]
cellular motility (two-dimensional scratch assay): neither U2OS nor HT-1080 cells showed inhibition of motility
